# Target: T1, HIV-1 RT (HIV-1 M:B_HXB2R, UniProt P04585)
# T1 construct: gene gag-pol; mature RT cut from Gag-Pol polyprotein
# Test: RNase H inhibition assay
# Format: biochemical
# Details: RNase H activity; read-out: IC50 (μg/mL)^∗ / HIV-1 / RNase H
# Source text: RNase H inhibition assay on HIV-1 RT
substance,measurement,value
RDS1759,IC50,7.1 ± 0.5 µM

# From publication PMC4895043, “Biological Activities of Aerial Parts Extracts of Euphorbia characias” (BioMed Research International, 2016)
